Test results taken from US8765775B2, “Anti-angiogenic compounds” (Universitaet Zuerich, priority 2008, dated 2014).
“And” between values parts separate entries of the source, which are not always exact repeats. Identical values can stand only once. One block for each compound: values may come before it.

Columns and labels:
[1] = molecular target: T1, EphB4 (Homo sapiens, UniProt P54760); experiment: IC50 and % inhibition (Table 3); assay type: biochemical; settings: for inhibition at 10 µM / inhibition at 20 µM: read-out: % inhibition at indicated concentration C; for IC50: Table 3, repeated determinations, read-out: IC50
T1 sequence (P54760 16-987): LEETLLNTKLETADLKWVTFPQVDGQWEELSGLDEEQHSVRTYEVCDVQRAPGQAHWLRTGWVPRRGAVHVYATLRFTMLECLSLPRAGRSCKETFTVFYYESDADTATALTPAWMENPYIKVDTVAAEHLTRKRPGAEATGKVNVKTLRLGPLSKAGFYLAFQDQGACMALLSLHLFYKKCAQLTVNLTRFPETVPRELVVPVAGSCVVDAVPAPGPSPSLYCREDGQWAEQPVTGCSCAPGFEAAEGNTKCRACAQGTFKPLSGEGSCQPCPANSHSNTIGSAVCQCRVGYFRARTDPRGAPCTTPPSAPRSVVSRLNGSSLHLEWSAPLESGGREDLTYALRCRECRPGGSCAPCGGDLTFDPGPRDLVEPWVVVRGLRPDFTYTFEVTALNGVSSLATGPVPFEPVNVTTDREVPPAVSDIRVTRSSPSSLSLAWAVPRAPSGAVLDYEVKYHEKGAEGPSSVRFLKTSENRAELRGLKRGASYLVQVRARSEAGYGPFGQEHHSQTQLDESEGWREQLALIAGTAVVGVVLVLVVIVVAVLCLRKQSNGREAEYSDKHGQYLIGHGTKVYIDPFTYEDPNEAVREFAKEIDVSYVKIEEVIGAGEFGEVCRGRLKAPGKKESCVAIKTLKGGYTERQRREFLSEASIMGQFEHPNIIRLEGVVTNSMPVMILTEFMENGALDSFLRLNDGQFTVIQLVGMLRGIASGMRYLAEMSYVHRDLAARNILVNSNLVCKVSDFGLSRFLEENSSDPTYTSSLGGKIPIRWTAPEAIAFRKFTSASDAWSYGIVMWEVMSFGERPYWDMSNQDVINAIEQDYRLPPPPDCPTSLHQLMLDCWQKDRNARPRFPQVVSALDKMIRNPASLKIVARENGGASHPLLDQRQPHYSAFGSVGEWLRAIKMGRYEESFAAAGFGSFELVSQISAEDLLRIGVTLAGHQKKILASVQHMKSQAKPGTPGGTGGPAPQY

[2] = molecular target: T1, EphB4; experiment: Panvera Z'Lyte FRET-based enzymatic assay; settings: for Inhibitory activity in the enzymatic assay (in words): Z'Lyte
Protocol: In vitro kinase activity was measured using the Panvera Z'Lyte Tyr2 kinase assay PV3191 (Invitrogen, USA), according to the manufacturer's instructions. […] The reaction is performed at room temperature for 1 hour.

[3] = molecular target: T2, myc-tagged full-length human EphB4 (Homo sapiens, UniProt P54760); experiment: Phospho-EphB4 ELISA of CHO cells (EphB4 autophosphorylation); assay type: cell-based; settings: in CHO cells, at 20 μM
T2 construct: stably transfected with myc-tagged full-length human EphB4; expressed in transfected cells; host or cells: CHO-FRT cells (Flip-In System, Invitrogen)
T2 sequence (P54760 16-987): T1 sequence (P54760 16-987)
Protocol: Phospho-EphB4 ELISA of CHO cells. The ELISA assay was performed as follows: Chinese hamster ovary (CHO)-FRT cells are stably transfected with myc-tagged full-length human EphB4 according to the Flip-In System protocol (Invitrogen, USA). […] Cells of this clone are preincubated with EphB4 inhibitors for 15 minutes and then stimulated with preclustered ephrinB2-Fc for 45 minutes at 37° C. Cells are lysed, transferred to a 96-well plate coated with anti-myc antibody and incubated overnight at 4° C. After incubation with anti-phosphotyrosine antibody, reactions are developed with BM Blue peroxydase substrate, and autophosphorylation of EphB4 is quantified by measuring absorption at 450 nm.

% inhibition at indicated concentration C ([1]; C = 10 μM, 10 µM): 58% and 54%
inhibition at 10 µM ([1]; C = 10 μM): 62%
IC50 [1]: 8 µM and 9 µM
IC50 [2]: 1.9 µM
Inhibitory activity in the enzymatic assay (in words) [2]: low-micromolar
Cell-based assay percent inhibition [3]: neg.
Structure (SMILES): CCCn1c(-c2ccccc2)cn2c3c(=O)[nH]c(=O)n(C)c3nc12 [Compound 4]

% inhibition at indicated concentration C ([1]; C = 10 μM, 10 µM): 46%
inhibition at 10 µM ([1]; C = 10 μM): 49%
IC50 [2]: 50 µM
Inhibitory activity in the enzymatic assay (in words) [2]: mid-micromolar range
inhibition at 20 µM ([3]; read-out: Cell-based assay percent inhibition): 28%
Structure (SMILES): COCCCn1c(-c2ccccc2)cn2c3c(=O)[nH]c(=O)n(C)c3nc12 [Compound 6]

IC50 ([2]; read-out: Enzymatic assays IC50 Z′Lyte, FRET-based, 10 μM ATP, 1% DMSO, room temperature 1 hour): 76 µM
Structure (SMILES): CC1(C)Cc2c(sc(NC(=O)Nc3ccccc3)c2C(N)=O)CO1 [Compound 9, reference compound]

% inhibition at indicated concentration C ([1]; C = 10 μM, 10 µM): 50% and 28%
Structure (SMILES): COc1ccc(-n2c(-c3ccc(F)cc3)cn3c4c(=O)[nH]c(=O)n(C)c4nc23)c(OC)c1 [Compound 16]

% inhibition at indicated concentration C ([1]; C = 10 μM, 10 µM): 62%
inhibition at 10 µM ([1]; C = 10 μM): 72%
Structure (SMILES): COc1ccc(OC)c(-n2c(-c3ccc(F)cc3)cn3c4c(=O)[nH]c(=O)n(C)c4nc23)c1 [Compound 17]

melting point: 393 to 395 °C
Structure (SMILES): O=c1[nH]c(=O)n(Cc2ccccc2)c2nc3[nH]c(-c4ccccc4)cn3c12 [Compound 18, 1-Benzyl-7-phenyl-1H-imidazo[2,1-f]purine-2,4(3H,9H)-dione]

melting point: 306 to 308 °C
Structure (SMILES): Cn1c(-c2ccccc2)cn2c3c(=O)[nH]c(=O)n(Cc4ccccc4)c3nc12 [Compound 19, 1-Benzyl-8-methyl-7-phenyl-1H-imidazo[2,1-f]purine-2,4(3H,8H)-dione]

melting point: 288 to 290 °C
Structure (SMILES): CNc1ccc(-c2cn3c4c(=O)[nH]c(=O)n(Cc5ccccc5)c4nc3n2C)cc1 [Compound 20, 1-Benzyl-8-methyl-7-p-methylaminophenyl-1H-imidazo[2,1-f]purine-2,4(3H,8H)-dione]

melting point: 250 to 252 °C
Structure (SMILES): O=c1[nH]c(=O)n(Cc2ccccc2)c2nc3n(-c4ccccc4)c(-c4ccc(F)cc4)cn3c12 [Compound 21, 1-Benzyl-7-p-fluorophenyl-8-phenyl-1H-imidazo[2,1-f]purine-2,4(3H,8H)-dione]

melting point: 251 to 253 °C
Structure (SMILES): COc1ccccc1-n1c(-c2ccc(F)cc2)cn2c3c(=O)[nH]c(=O)n(Cc4ccccc4)c3nc12 [Compound 22, 1-Benzyl-7-p-fluorophenyl-8-(2-methoxyphenyl)-1H-imidazo[2,1-f]purine-2,4(3H,8H)-dione]

% inhibition at indicated concentration C ([1]; C = 10 μM, 10 µM): 11%
inhibition at 10 µM ([1]; C = 10 μM): 15%
melting point: 301 to 303 °C
Structure (SMILES): COc1ccccc1-n1c(-c2ccccc2)cn2c3c(=O)[nH]c(=O)n(Cc4ccccc4)c3nc12 [Compound 25, 1-Benzyl-8-(2-methoxyphenyl)-7-phenyl-1H-imidazo[2,1-f]purine-2,4(3H,8H)-dione]

melting point: 323 to 325 °C
Structure (SMILES): COc1ccccc1-n1c(-c2ccc([N+](=O)[O-])cc2)cn2c3c(=O)[nH]c(=O)n(C)c3nc12 [Compound 27, 8-(2-Methoxyphenyl)-1-methyl-7-p-nitrophenyl-1H-imidazo[2,1-f]purine-2,4(3H,8H)-dione]

% inhibition at indicated concentration C ([1]; C = 20 μM, 20 µM): 17%
inhibition at 20 µM ([1]; C = 20 μM): 13%
melting point: 303 to 305 °C
Structure (SMILES): COc1ccccc1-n1c(-c2ccc(C#N)cc2)cn2c3c(=O)[nH]c(=O)n(C)c3nc12 [Compound 28, 8-(2-Methoxyphenyl)-1-methyl-7-p-cyanophenyl-1H-imidazo[2,1-f]purine-2,4(3H,8H)-dione]

% inhibition at indicated concentration C ([1]; C = 20 μM, 20 µM): 50% and 62% and 37% and 34%
melting point: 205 to 207 °C
Structure (SMILES): Cn1c(=O)[nH]c(=O)c2c1nc1n(CCCCO)c(-c3ccc(NCCCCO)cc3)cn21 [Compound 29]

IC50 [1]: 4.6 µM and 6.2 µM
Structure (SMILES): COc1ccccc1-n1c(-c2ccc(F)cc2)cn2c3c(=O)[nH]c(=O)[nH]c3nc12 [Compound 30, 7-p-Fluorophenyl-8-(2-methoxyphenyl)-1H-imidazo[2,1-f]purine-2,4(3H,8H)-dione]

IC50 [1]: 9.5 µM and 8.9 µM
Structure (SMILES): COC(=O)Cn1c(=O)[nH]c(=O)c2c1nc1n(-c3ccccc3OC)c(-c3ccc(F)cc3)cn21 [Compound 32, 8-(2-Methoxyphenyl)-1-(methoxy-2-oxoethyl)-7-(p-Fluorophenyl)-1H-imidazo[2,1-f]purine-2,4(3H,8H)-dione]

IC50 [1]: 5.1 µM and 6.4 µM
Structure (SMILES): COc1ccccc1-n1c(-c2ccc(F)cc2)cn2c3c(=O)[nH]c(=O)n(CSC)c3nc12 [Compound 34, 8-(2-Methoxyphenyl)-1-(methylthiomethyl)-7-(p-Fluorophenyl)-1H-imidazo[2,1-f]purine-2,4(3H,8H)-dione]

IC50 [1]: 7.9 µM and 7.1 µM
Structure (SMILES): COc1ccccc1-n1c(-c2ccc(F)cc2)cn2c3c(=O)[nH]c(=O)n(CS(C)(=O)=O)c3nc12 [Compound 35, 8-(2-Methoxyphenyl)-1-(methylsulfonylmethyl)-7-(p-Fluorophenyl)-1H-imidazo[2,1-f]purine-2,4(3H,8H)-dione]

% inhibition at indicated concentration C ([1]; C = 10 μM, 10 µM): 10% and 4%
melting point: 276 to 278 °C
Structure (SMILES): O=c1[nH]c(=O)n(Cc2ccccc2)c2nc3n(-c4ccccc4)c(-c4ccc(F)cc4)c(Br)n3c12 [Compound 36, 1-Benzyl-6-bromo-7-p-fluorophenyl-8-phenyl-1H-imidazo[2,1-f]purine-2,4(3H,8H)-dione]

melting point: 274 to 276 °C
Structure (SMILES): COc1ccccc1-n1c(-c2ccccc2)c(Br)n2c3c(=O)[nH]c(=O)n(C)c3nc12 [Compound 37, 6-Bromo-8-(2-methoxyphenyl)-1-methyl-7-phenyl-1H-imidazo[2,1-f]purine-2,4(3H,8H)-dione]

melting point: 302 to 304 °C
Structure (SMILES): CCCCn1c(-c2ccccc2)c(Br)n2c3c(=O)[nH]c(=O)n(C)c3nc12 [Compound 38, 6-Bromo-8-butyl-1-methyl-7-phenyl-1H-imidazo[2,1-f]purine-2,4(3H,8H)-dione]

% inhibition at indicated concentration C ([1]; C = 20 μM, 20 µM): 30%
inhibition at 20 µM ([1]; C = 20 μM): 21%
Structure (SMILES): COc1ccccc1-n1c(-c2ccccc2)c(C#N)n2c3c(=O)[nH]c(=O)n(C)c3nc12 [Compound 41, 6-Cyano-8-(2-methoxyphenyl)-1-methyl-7-phenyl-1H-imidazo[2,1-f]purine-2,4(3H,8H)-dione]

% inhibition at indicated concentration C ([1]; C = 20 μM, 20 µM): 23% and 19% and 13%
inhibition at 20 µM ([1]; C = 20 μM): 12%
Structure (SMILES): COc1ccccc1-n1c(-c2ccc(C(=O)O)cc2)cn2c3c(=O)[nH]c(=O)n(C)c3nc12 [Compound 44, 8-(2-Methoxyphenyl)-1-methyl-7-p-carboxyphenyl-1H-imidazo[2,1-f]purine-2,4(3H,8H)-dione]
